These results are taken from patent US20020028938A1, “Prostaglandin endoperoxide H synthase biosynthesis inhibitors” (priority 1997, published 2002).

The target in series [1] is T1, human amnionic whole cell cyclooxygenase-2 (WISH cells) (Homo sapiens, UniProt P35354).
T1 construct: endogenous in cells; host or cells: human amnionic WISH cells, induced with IL-1beta
T1 sequence (P35354 18-604): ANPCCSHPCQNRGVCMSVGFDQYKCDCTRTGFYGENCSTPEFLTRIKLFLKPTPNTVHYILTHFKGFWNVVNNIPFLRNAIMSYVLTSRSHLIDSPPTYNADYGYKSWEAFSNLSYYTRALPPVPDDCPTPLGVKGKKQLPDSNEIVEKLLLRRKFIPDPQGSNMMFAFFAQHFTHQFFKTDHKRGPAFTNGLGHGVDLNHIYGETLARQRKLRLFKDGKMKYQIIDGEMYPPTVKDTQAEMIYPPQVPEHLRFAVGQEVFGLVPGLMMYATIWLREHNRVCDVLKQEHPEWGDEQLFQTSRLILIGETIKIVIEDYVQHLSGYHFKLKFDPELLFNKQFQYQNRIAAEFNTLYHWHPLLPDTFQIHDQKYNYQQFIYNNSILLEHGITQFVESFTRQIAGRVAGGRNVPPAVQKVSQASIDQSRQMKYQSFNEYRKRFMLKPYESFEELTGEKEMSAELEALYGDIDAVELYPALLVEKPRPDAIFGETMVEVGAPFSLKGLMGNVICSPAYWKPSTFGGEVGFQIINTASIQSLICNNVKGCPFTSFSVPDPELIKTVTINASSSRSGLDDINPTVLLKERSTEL
In words: IL-1β induced PGE2 production in WISH cells. The class given is cell-based. Conditions: read-out: Wish IC50 (parenthetical value). An outline of the steps: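 Confluent (80%) WISH cells were stimulated with 5 ng/ml IL-1β in serum-free Neuman-Tytell medium, with or without test compound in DMSO (0.01% v/v). PGE2 in the culture medium was measured by EIA against standards prepared in the same medium, read by optical density.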

Series [2] has as its target T2, recombinant human Cox-2 (r-hu Cox-2) (Homo sapiens, UniProt P35354).
T2 construct: made in house; host or cells: baculovirus/Sf9 insect cells (microsomes)
T2 sequence (P35354 18-604): T1 sequence (P35354 18-604)
Nature of the series: Recombinant human PGHS-2 enzyme assay (RHUCX2). Particulars: for IC50: read-out: RHUCX2 IC50 (parenthetical value). It counts as biochemical. An outline of the steps: (§1)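 Prostaglandin biosynthesis was measured as PGE2 output, read by enzyme immunoassay after a 2.5-minute room-temperature reaction stopped with HCl and neutralized with NaOH.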

For series [3], the target named is T3, Cox-1 in Monocyte U937 cells (Homo sapiens, UniProt P23219).
T3 construct: endogenous in cells; host or cells: U937 monocyte cells (ATCC)
T3 sequence (P23219 24-599): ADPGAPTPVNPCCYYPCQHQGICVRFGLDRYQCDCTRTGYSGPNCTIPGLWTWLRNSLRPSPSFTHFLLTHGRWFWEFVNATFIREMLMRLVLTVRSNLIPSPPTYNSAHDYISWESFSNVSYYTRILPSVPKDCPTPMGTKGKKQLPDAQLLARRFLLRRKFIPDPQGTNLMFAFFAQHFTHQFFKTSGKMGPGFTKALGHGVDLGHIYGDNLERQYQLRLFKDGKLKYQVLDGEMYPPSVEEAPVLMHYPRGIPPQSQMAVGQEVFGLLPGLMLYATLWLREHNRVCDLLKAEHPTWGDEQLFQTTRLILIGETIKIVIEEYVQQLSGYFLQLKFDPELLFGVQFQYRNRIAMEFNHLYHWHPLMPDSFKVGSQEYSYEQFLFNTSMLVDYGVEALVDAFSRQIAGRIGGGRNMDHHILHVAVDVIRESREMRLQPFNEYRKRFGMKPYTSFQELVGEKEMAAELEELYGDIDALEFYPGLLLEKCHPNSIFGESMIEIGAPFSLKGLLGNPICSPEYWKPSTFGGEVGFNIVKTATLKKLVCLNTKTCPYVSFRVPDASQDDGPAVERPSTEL
In words: Monocyte U937 cell Cox-1 assay. The class given is cell-based. Here is the method: Human amnionic WISH cells were grown to 80% confluence in 48 well plates. Following removal of the growth medium and two washings with Geys Balanced Salt Solutn, 5 ng IL-1β /ml (UBI, Lake Placid, N.Y.) was added to the cells with or without test compound in DMSO (0.01% v/v) in Neuman-Tytell Serumless Medium (GIBCO, Grand Island, N.Y.). Following an 18 hour incubation to allow for the maximal induction of PGHS-2, the conditioned medium was removed and assayed for PGE2 content by EIA analysis as described above.
Monocyte U937 (ATCC, Rockville, Md.) cells were grown in a similar fashion to the WISH cells. After incubation, the conditioned medium was removed and assayed for […] by EIA analysis as described above.

Series [4] concerns the target T4, recombinant human Cox-1 (r-hu Cox1) (Homo sapiens, UniProt P23219).
T4 construct: made in house; host or cells: baculovirus/Sf9 insect cells (microsomes)
Nature of the series: Recombinant human PGHS-1 enzyme assay (RHUCX1). It counts as biochemical. Conditions: for inhibition at 100 µM / inhibition at 10 µM: read-out: RHUCX1 % Inh. at Dose. An outline of the steps: as §1

For series [5], the system named is carrageenan induced paw edema. Nature of the series: Carrageenan induced paw edema (CPE) in rats. It counts as in vivo. Conditions: rat; for inhibition in vivo at 10 mg/kg: 10 mpk oral, 3 hours after carrageenan, read-out: CPE % Inhib. @ 10 mpk. An outline of the steps:
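Male Sprague-Dawley rats (170–190 g) dosed orally in PEG 400, 1 h before subplantar 0.1 ml 1% lambda carrageenan in right hindpaw. Plethysmographic paw volume at 0 and 3 h; edema as difference, % inhibition versus control mean (±SEM), Dunnett's test, ED50 by linear regression.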
A general note: Carrageenan injected into the paw causes an acute inflammation.

Series [6] in a line: Pharmacokinetic profile (plasma concentration, half life, AUC). It counts as in vivo, Rat. Particulars: for half-life: Rat IV (3mg/kg); for AUC / concentration at 14 day: rat; for concentration at 14 day: oral, based on 10 mg/kg dosage, read-out: 14 day plasma micromolar concentration.
Series [7] addresses T5, Human Whole Platelet Cyclooxygenase-1 (Homo sapiens, UniProt P23219).
T5 construct: from tissue; host or cells: human blood: isolated platelets (A4) or heparinised whole blood (A9)
Nature of the series: Human Whole Platelet Cyclooxygenase-1 assay (HWPX). Particulars: read-out: HWPX IC50 (parenthetical value). It counts as cell-based. Put shortly: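 Washed platelets from healthy-donor ACD blood were pre-incubated with compound for 10 min, then stimulated with calcium ionophore A23187 (8.8 μM final) for 10 min. Reaction stopped with cold 6 mM EDTA; thromboxane in supernatants quantified with a commercial kit.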

Series [8] concerns air pouch prostaglandin biosynthesis (Cox-2). Nature of the series: Carrageenan induced air pouch prostaglandin biosynthesis model (CAP). Particulars: for inhibition in vivo at 3 mg/kg: 4 h, 3 mpk, rat, read-out: CAP % Inhib. @ 3 mpk; for ED50: Rattus norvegicus. It counts as in vivo, rat. An outline of the steps:
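Male Sprague Dawley rats with dorsal air pouches (20 mL air day 0, 10 mL day 3) received 0.2% lambda carrageenan in saline into the pouch on day 7. Compounds dosed at 0.1 to 10 mg/kg 30 min before carrageenan; pouch lavaged 4 h later, prostaglandins measured by EIA. Percent inhibition versus control mean; ED50 by linear regression.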

In the next series the target is T6, Human whole blood Cox-2 (Homo sapiens, UniProt P35354).
T6 construct: from tissue; host or cells: heparinised human whole blood stimulated with E. coli LPS
T6 sequence (P35354 18-604): T1 sequence (P35354 18-604)
In words: Human whole blood assay Cyclooxygenase-2. The class given is cell-based. On the procedure:
Heparin anticoagulated blood was incubated with drugs dissolved in DMSO. The samples are incubated at 37 degrees Celsius for 15 minutes. E. coli lipopolysaccaride (LPS) 5 μg/ml dded and the samples incubated for 5 hours. The reaction was stopped with the addition of EGTA and cold methanol (50% final concentration). After 18 hours at −70 degree Celsius, the plates were centrifuged and supernatants analyzed for TXB2.

Another series deals with T7, Human whole blood Cox-1 (Homo sapiens, UniProt P23219).
T7 construct: from tissue; host or cells: human blood: isolated platelets (A4) or heparinised whole blood (A9)
T7 sequence (P23219 24-599): as above
Nature of the series: Human whole blood assay Cyclooxygenase-1. It counts as cell-based. Here is the method:
Heparin anticoagulated blood was incubated with drugs dissolved in DMSO. The samples are incubated at 37 degrees Celsius for 4.5 hours after which calcium ionophore at a final concentration of 30 μM was added and the mixture allowed to incubate for 30 minutes. The reaction was stopped with the addition of EGTA and cold methanol (50% final concentration). After 18 hours at −70 degrees Celsius, the plates were centrifuged and supernatants analyzed for TXB2.

T5 sequence (P23219 24-599): as above
T4 sequence (P23219 24-599): as above

Take `CS(=O)(=O)c1ccc(-c2cnn(Cc3ccc(F)cc3)c(=O)c2-c2ccc(F)cc2)cc1` [Example 20]: the melting point lay within 153 to 154 °C. Further, the IC50 in series [1] was 1 nM. Besides, the inhibition at 0.01 µM in series [2] (0.01 μM, read-out: RHUCX2 % Inh. at Dose) came to 9%. Further, in series [2] (0.1 μM, read-out: RHUCX2 % Inh. at Dose), the inhibition at 0.1 µM stood at 86%. For the same molecule, the inhibition at 1 µM in series [3] (U-937, 1 μM, read-out: U937 % Inhib. at Dose) was found to be 33%. In addition, the inhibition at 100 µM in [4] amounted to 10%.
Turning to `CC(C)=CCn1ncc(-c2ccc(S(C)(=O)=O)cc2)c(-c2ccc(F)cc2)c1=O` [Example 24, 2-(3-Methyl-2-butenyl)-4-(4-fluorophenyl)-5-[4-(methylsulfonyl)phenyl]-3(2H)-pyridazinone], the melting point lay within 169 to 172 °C. Moreover, the IC50 in [3] (read-out: U937 IC50 (parenthetical value)) came out at 190 nM. Besides, in [4], the inhibition at 10 µM turned out to be 0% and the inhibition at 100 µM was found to be 60%.
Consider `CC(C)CCOc1c(-c2ccc(S(C)(=O)=O)cc2)cnn(-c2ccc(F)cc2)c1=O` [Example 375, 2-(4-Fluorophenyl)-4-(3-methylbutoxy)-5-[4-(methylsulfonyl)phenyl]-3(2H)-pyridazinone], for which the melting point fell in the range of 117 to 120 °C. In addition, in [1], the IC50 amounted to 89 nM. Besides, the IC50 in series [2] was determined as 180 nM. Besides, the inhibition in vivo at 10 mg/kg in series [5] stood at 47%. Moreover, in series [6], the half-life is 2.9 h, the AUC was determined as 1.8 µM·h and the concentration at 14 day turned out to be 0 µM. For the same molecule, in [7], the IC50 came out at 2040 nM. Also, in series [4], the inhibition at 10 µM is 31% and the inhibition at 100 µM is 46%. For the same molecule, in series [8], the inhibition in vivo at 3 mg/kg stood at 77.5% and the ED50 turned out to be 0.57 mg/kg.
In turn, `CC(C)(O)CCOc1c(-c2ccc(S(C)(=O)=O)cc2)cnn(-c2ccc(F)cc2)c1=O` [Example 451, 2-(4-Fluorophenyl)-4-(3-hydroxy-3-methyl-1-butoxy)-5-[4-(methylsulfonyl)phenyl]-3(2H)-pyridazinone] yielded a melting point of 133 to 134 °C. The IC50 in [1] turned out to be 150 nM. On Human whole blood Cox-2, half-maximal inhibition (IC50) required 470 nM. For the same molecule, in series [2], the IC50 was 470 nM. Also, the “CPE ED30” value in series [5] (oral) is “ED30 = 0.82”. In series [6], the half-life was 5.2 h, the AUC was found to be 69 µM·h and the concentration at 14 day was found to be 3.43 µM. Also, in series [7], the IC50 was found to be 22400 nM. Further, the inhibition at 100 µM in [4] stood at 10%. The same molecule returned an IC50 against Human whole blood Cox-1 of 29100 nM. In addition, in series [8], the inhibition in vivo at 3 mg/kg was found to be 80.5% and it took a dose of 0.7 mg/kg to reach the 50% effect level (ED50).
`CC(C)(O)CCOc1c(-c2ccc(S(C)(=O)=O)cc2)cnn(-c2ccc(F)c(F)c2)c1=O` [Example 471, 2-(3,4-Difluorophenyl)-4-(3-hydroxy-3-methyl-1-butoxy)-5-[4-(methylsulfonyl)phenyl]-3(2H)-pyridazinone]: the melting point lay in the range of 131 to 133 °C. Besides, the IC50 in series [1] was 40 nM. Besides, at Human whole blood Cox-2 (0.03 micromolar), the inhibition at 0.03 µM was 85%. In series [2], the IC50 was determined as 490 nM. For the same molecule, the inhibition in vivo at 10 mg/kg in series [5] came to 41%. The IC50 in [7] is 320 nM. Besides, the IC50 in series [4] (read-out: RHUCX1 IC50 (parenthetical value)) was 3680 nM. This molecule also yielded an inhibition at 30 µM against Human whole blood Cox-1 (30 micromolar) of 55.5%. In addition, the ED50 in series [8] is 0.9 mg/kg.

Usually IC50 stands for the concentration needed to halve the response being measured. In general, melting point refers to the temperature of the solid-liquid transition. One may read the half-life as the time in which the quantity being followed falls by half. A low value points to rapid decline. By AUC is commonly meant concentration integrated over time. Read a high AUC as more exposure. The ED50 is the dose at which the effect has come halfway, by size or by number of responders.
